Experiments:
human KDR = biological target: T1, human KDR (Homo sapiens, UniProt P35968); experiment: Inhibitory activity against KDR phosphorylation by ELISA; assay type: cell-based; conditions: NIH 3T3 cells transfected with human KDR, VEGF 100 ng/ml
T1 construct: expressed in transfected cells; host or cells: NIH 3T3 cells (Sawano A et al., Cell Growth & Differentiation 7, 213-221 (1996))
Protocol: Measurement of Inhibitory Activity Against KDR Phosphorylation by ELISA
NIH 3T3 cells (Sawano A et al., Cell Growth & Differentation, 7, 213–221 (1996), “Flt-1 but not KDR/Flk-1 tyrosine kinase is a receptor for placenta growth factor, which is related to vascular endothelial growth factor”) prepared by transfection of human KDR were cultured in a DMEM medium containing 10% fetal calf serum (purchased from GIBCO BRL) within a 5% carbon dioxide incubator until 50 to 70% confluent. The harvested cells were inoculated into wells, containing the same medium, in a collagen-type one-coat 96-well flat-bottom plate in an amount of 1.5×10^4 per well, followed by cultivation at 37° C. overnight. The medium was then replaced by a DMEM medium containing 0.1% fetal calf serum. A solution of the test compound in dimethyl sulfoxide was added to each well, and the cultivation was continued at 37° C. for additional one hr. A human recombinant vascular endothelial growth factor (hereinafter abbreviated to “VEGF”) was added to a final concentration of 100 ng/ml, and the stimulation of cells was carried out at 37° C. for 2 min. The medium was removed, the cells were washed with phosphate buffered saline (pH 7.4), and 50 μl of a solubilization buffer (20 mM HEPES (pH 7.4), 150 mM NaCl, 0.2% Triton X-100, 10% glycerol, 5 mM sodium orthovanadylate, 5 mM disodium ethylenediaminetetraacetate, and 2 mM Na4P2O7) was then added thereto. The mixture was shaken at 4° C. for 2 hr to prepare a cell extract.
Separately, phosphate buffered saline (50 μl, pH 7.4) containing […] of anti-phospho-tyrosine antibody (PY20; purchased from Transduction Laboratories) was added to a microplate for ELISA (Maxisorp; purchased from NUNC), followed by standing at 4° C. overnight to form a solid phase on the wells. After washing of the plate, 300 μl of a blocking solution was added, followed by standing at room temperature for 2 hr to perform blocking. After washing, the whole quantity of the cell extract was transferred to the wells, and the plate was then allowed to stand at 4° C. overnight. After washing, an anti-KDR antibody (purchased from Santa Cruz) was allowed to react at room temperature for one hr, and, after washing, a peroxidase-labeled anti-rabbit Ig antibody (purchased from Amersham) was allowed to react at room temperature for one hr. After washing, a chromophoric substrate for peroxidase (purchased from Sumitomo Bakelite Co., Ltd.) was added thereto to initiate a reaction. After a suitable level of color development, a reaction termination solution was added to stop the reaction, and the absorbance at 450 nm was measured with a microplate reader. The KDR phosphorylation activity for each well was determined by presuming the absorbance with the addition of VEGF and without the addition of the medicament to be 100% KDR phosphorylation activity and the absorbance without the medicament and VEGF to be 0% KDR phosphorylation activity. The concentration of the test compound was varied on several levels, the inhibition (%) of KDR phosphorylation was determined for each case, and the concentration of the test compound necessary for inhibiting 50% of KDR phosphorylation (IC50) was calculated.

Human glioma cells GL07 = experiment: Antitumor effect on human glioma cells (GL07) transplanted into nude mice; assay type: in vivo; conditions: GL07, oral, 20 mg/kg once a day for 9 days; for inhibition in vivo at 20 mg/kg: Mus musculus, Glioma cell, 216 h, read-out: TGIR, % (tumor growth inhibition rate)
Protocol: Antitumor Effect on Human Glioma Cells (GL07)
Human glioma cells GL07 (obtained from Central Laboratories for Experimental Animals) were transplanted into nude mice. When the tumor volume became about 100 mm^3, the mice were grouped. In this case, grouping was carried out so that each group consisted of four mice and the average tumor volume was even among the groups. The test compound was orally or intraperitoneally administered at a dose of 20 mg/kg to the test groups every day once a day for 9 days, while the medium was administered to the control group in the manner as in the test groups. The tumor growth inhibition rate (TGIR) was calculated as follows: The tumor growth inhibition rate (TGIR)=(1−Tx/Cx)×100 wherein Cx represents the volume of tumor at day x for the control group when the tumor volume at the day of the start of the administration was presumed to be 1; and Tx represents the volume of tumor for test compound administration groups.

T1 sequence (P35968 20-1356): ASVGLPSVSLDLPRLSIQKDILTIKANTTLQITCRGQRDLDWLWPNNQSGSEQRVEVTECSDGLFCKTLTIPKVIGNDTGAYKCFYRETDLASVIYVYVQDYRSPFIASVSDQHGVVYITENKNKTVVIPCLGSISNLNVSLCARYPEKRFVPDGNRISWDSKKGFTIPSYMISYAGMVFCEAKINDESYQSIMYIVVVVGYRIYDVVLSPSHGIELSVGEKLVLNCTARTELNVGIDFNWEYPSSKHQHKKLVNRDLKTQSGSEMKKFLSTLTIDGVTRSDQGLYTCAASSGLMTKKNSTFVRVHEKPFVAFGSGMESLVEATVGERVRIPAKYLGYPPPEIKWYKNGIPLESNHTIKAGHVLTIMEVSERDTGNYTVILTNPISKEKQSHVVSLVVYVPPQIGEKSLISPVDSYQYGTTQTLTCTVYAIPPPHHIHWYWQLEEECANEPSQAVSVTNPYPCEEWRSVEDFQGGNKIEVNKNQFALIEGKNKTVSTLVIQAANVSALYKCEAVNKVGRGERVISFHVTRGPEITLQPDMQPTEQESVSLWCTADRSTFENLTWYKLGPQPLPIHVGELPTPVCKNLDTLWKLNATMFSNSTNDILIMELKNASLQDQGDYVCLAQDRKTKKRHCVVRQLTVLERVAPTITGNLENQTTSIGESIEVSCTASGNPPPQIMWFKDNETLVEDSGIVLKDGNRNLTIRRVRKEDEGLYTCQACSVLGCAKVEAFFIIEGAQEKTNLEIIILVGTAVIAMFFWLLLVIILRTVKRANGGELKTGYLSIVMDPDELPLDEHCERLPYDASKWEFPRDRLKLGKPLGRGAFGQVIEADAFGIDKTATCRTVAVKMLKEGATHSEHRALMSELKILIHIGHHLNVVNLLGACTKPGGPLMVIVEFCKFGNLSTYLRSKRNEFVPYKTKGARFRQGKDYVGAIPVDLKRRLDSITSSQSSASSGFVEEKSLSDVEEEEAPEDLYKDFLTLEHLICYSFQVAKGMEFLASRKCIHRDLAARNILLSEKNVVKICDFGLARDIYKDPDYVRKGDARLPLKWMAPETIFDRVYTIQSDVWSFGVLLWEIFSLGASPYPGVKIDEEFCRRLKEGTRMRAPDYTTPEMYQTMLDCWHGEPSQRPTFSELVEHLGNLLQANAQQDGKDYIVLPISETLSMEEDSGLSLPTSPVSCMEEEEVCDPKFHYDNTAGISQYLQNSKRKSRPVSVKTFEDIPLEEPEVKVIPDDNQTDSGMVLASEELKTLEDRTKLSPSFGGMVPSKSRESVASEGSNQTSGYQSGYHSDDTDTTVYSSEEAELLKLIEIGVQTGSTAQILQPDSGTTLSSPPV

## CCCNC(=O)Nc1ccc(Oc2ccnc3cc(OCCCN4CCOCC4)c(OC)cc23)cc1Cl [Example 151, N-(2-chloro-4-{[6-methoxy-7-(3-morpholinopropoxy)-4-quinolyl]oxy}phenyl)-N′-propylurea]
Human KDR
  IC50: 0.5 nM
Human glioma cells GL07
  inhibition in vivo at 20 mg/kg: 44%

## CCCNC(=O)Nc1ccc(Oc2ccnc3cc(OCCCN4CCN(C)CC4)c(OC)cc23)cc1Cl [Example 152, N-[2-chloro-4-(6-methoxy-7-{[3-(4-methylpiperazino)propoxy]-4-quinolyl}oxy)phenyl]-N′-propylurea]
Human KDR
  IC50: 0.8 nM
Human glioma cells GL07
  inhibition in vivo at 20 mg/kg: 44%

## CCCNC(=O)Nc1ccc(Oc2ccnc3cc(OCCCn4ccnn4)c(OC)cc23)cc1Cl [Example 153, N-[2-chloro-4-(6-methoxy-7-{[3-(1H-1,2,3-triazol-1-yl)propoxy]-4-quinolyl}oxy)phenyl]-N′-propylurea]
Human KDR
  IC50: 1.5 nM
Human glioma cells GL07
  inhibition in vivo at 20 mg/kg: 53%

## CCCNC(=O)Nc1ccc(Oc2ccnc3cc(OCCCn4ccnc4)c(OC)cc23)cc1Cl [Example 154, N-[2-Chloro-4-({7-[3-(1H-1-imidazolyl)-propoxy]-6-methoxy-4-guinolyl}oxy)phenyl]-N′-propylurea]
Human KDR
  IC50: 1.5 nM
Human glioma cells GL07
  inhibition in vivo at 20 mg/kg: 34%

## CCCNC(=O)Nc1ccc(Oc2ccnc3cc(OCCN(CCO)CCO)c(OC)cc23)cc1Cl [Example 155, N-{2-Chloro-4-[(7-{2-[di(2-hydroxyethyl)-amino]ethoxy}-6-methoxy-4-guinolyl)oxy]phenyl}-N-propylurea]
Human KDR
  IC50: 2.1 nM
Human glioma cells GL07
  inhibition in vivo at 20 mg/kg: 29%

## CCCNC(=O)Nc1ccc(Oc2ccnc3cc(OCCCN(CCO)CCO)c(OC)cc23)cc1Cl [Example 156, N-{2-Chloro-4-[(7-{3-[di(2-hydroxyethyl)-amino]propoxy}-6-methoxy-4-guinolyl)oxy]phenyl}-N′-propylurea]
Human KDR
  IC50: 0.8 nM
Human glioma cells GL07
  inhibition in vivo at 20 mg/kg: 24%

## CCCNC(=O)Nc1ccc(Oc2ccnc3cc(OCCCN(C)CCO)c(OC)cc23)cc1Cl [Example 157, N-{2-chloro-4-[(7-{3-[(2-hydroxyethyl)-(methyl)amino]propoxy}-6-methoxy-4-quinolyl)oxy]-phenyl}-N′-propylurea]
Human KDR
  IC50: 0.4 nM
Human glioma cells GL07
  inhibition in vivo at 20 mg/kg: 44%

## CCCNC(=O)Nc1ccc(Oc2ccnc3cc(OCCCCn4ccnn4)c(OC)cc23)cc1Cl [Example 158, N-[2-Chloro-4-({6-methoxy-7-[4-(1H-1,2,3-triazol-1-yl)butoxy]-4-guinolyl}oxy)phenyl]-N′-propylurea]
Human KDR
  IC50: 1.6 nM
Human glioma cells GL07
  inhibition in vivo at 20 mg/kg: 39%

## CCCNC(=O)Nc1ccc(Oc2ccnc3cc(OCCCCCn4ccnn4)c(OC)cc23)cc1Cl [Example 159, N-{2-chloro-4-[(6-methoxy-7-{[5-(1H-1,2,3-triazol-1-yl)pentyl]oxy}-4-quinolyl)oxy]phenyl}-N′-propylurea]
Human KDR
  IC50: 1.9 nM
Human glioma cells GL07
  inhibition in vivo at 20 mg/kg: 40%

## CCCNC(=O)Nc1ccc(Oc2ccnc3cc(OCCCCn4ccnc4)c(OC)cc23)cc1Cl [Example 160, N-[2-chloro-4-(7-{[4-(1H-1-imidazolyl)-butoxy]-6-methoxy-4-quinolyl}oxy)phenyl]-N′-propylurea]
Human KDR
  IC50: 0.9 nM
Human glioma cells GL07
  TGIR, % (tumor growth inhibition rate): 43%

## COc1cc2c(Oc3ccc(NC(=O)Nc4ccc(F)cc4F)c(Cl)c3)ncnc2cc1OCc1ccncc1 [Example 161, N-(2-Chloro-4-{[6-methoxy-7-(4-pyridylmethoxy)-4-quinazolinyl]oxy}phenyl)-N′-(2,4-difluorophenyl)urea]
Human KDR
  IC50: 3.9 nM
Human glioma cells GL07
  inhibition in vivo at 20 mg/kg: 39%

## COc1cc2c(Oc3ccc(NC(=O)Nc4ccc(F)cc4F)c(Cl)c3)ncnc2cc1OCCN1CCOCC1 [Example 162, N-(2-chloro-4-{[6-methoxy-7-(2-morpholinoethoxy)-4-quinazolinyl]oxy}phenyl)-N′-(2,4-difluorophenyl)urea]
Human KDR
  IC50: 1 nM
Human glioma cells GL07
  inhibition in vivo at 20 mg/kg: 40%

## COc1cc2c(Oc3ccc(NC(=O)Nc4ccc(F)cc4F)c(Cl)c3)ncnc2cc1OCCCN1CCOCC1 [Example 163, N-(2-chloro-4-{[6-methoxy-7-(3-morpholinopropoxy)-4-quinazolinyl]oxy}phenyl)-N′-(2,4-difluorophenyl)urea]
Human KDR
  IC50: 1.4 nM
Human glioma cells GL07
  inhibition in vivo at 20 mg/kg: 52%

## COc1cc2c(Oc3ccc(NC(=O)Nc4ccc(F)cc4F)c(Cl)c3)ncnc2cc1OCCCN1CCN(C)CC1 [Example 164, N-[2-chloro-4-(6-methoxy-7-{[3-(4-methylpiperazino)propoxy]-4-quinazolinyl}oxy)phenyl]-N′-(2,4-difluorophenyl)urea]
Human KDR
  IC50: 0.9 nM
Human glioma cells GL07
  TGIR, % (tumor growth inhibition rate): 55%

## COc1cc2c(Oc3ccc(NC(=O)Nc4ccc(F)cc4F)c(Cl)c3)ncnc2cc1OCCCN(C)CCO [Example 165, N-{2-chloro-4-[(7-{3-[(2-hydroxyethyl)-(methyl)amino]propoxy}-6-methoxy-4-quinazolinyl)oxy]-phenyl}-N′-(2,4-difluorophenyl)urea]
Human KDR
  IC50: 0.6 nM
Human glioma cells GL07
  inhibition in vivo at 20 mg/kg: 44%

## COc1cc2c(Oc3ccc(NC(=O)Nc4ccc(F)cc4F)c(Cl)c3)ccnc2cc1OCCN1CCN(C)CC1 [Example 166, N-[2-Chloro-4-({6-methoxy-7-[2-(4-methylpiperazino)ethoxy]-4-guinolyl}oxy)phenyl]-N′-(2,4-difluorophenyl)urea]
Human KDR
  IC50: 2.2 nM
Human glioma cells GL07
  inhibition in vivo at 20 mg/kg: 27%

## COc1cc2c(Oc3ccc(NC(=O)Nc4ccc(F)cc4F)c(Cl)c3)ccnc2cc1OCCN(C)CCO [Example 167, N-{2-Chloro-4-[(7-{2-[(2-hydroxyethyl)-(methyl)amino]ethoxy}-6-methoxy-4-guinolyl)oxy]phenyl}-N′-(2,4-difluorophenyl)urea]
Human KDR
  IC50: 2.1 nM
Human glioma cells GL07
  inhibition in vivo at 20 mg/kg: 28%

## COc1cc2c(Oc3ccc(NC(=O)Nc4ccc(F)cc4F)c(Cl)c3)ccnc2cc1OCCCN1CCOCC1 [Example 168, N-(2-chloro-4-{[6-methoxy-7-(3-morpholinopropoxy)-4-quinolyl]oxy}phenyl)-N′-(2,4-difluorophenyl)-urea]
Human KDR
  IC50: 4 nM
Human glioma cells GL07
  inhibition in vivo at 20 mg/kg: 42%

## COc1cc2c(Oc3ccc(NC(=O)Nc4ccc(F)cc4F)c(Cl)c3)ccnc2cc1OCc1cccnc1 [Example 169, N-(2-chloro-4-{[6-methoxy-7-(3-pyridylmethoxy)-4-quinolyl]oxy}phenyl)-N′-(2,4-difluorophenyl)urea]
Human KDR
  IC50: 3.7 nM
Human glioma cells GL07
  inhibition in vivo at 20 mg/kg: 55%

## COc1cc2c(Oc3ccc(NC(=O)Nc4ccc(F)cc4F)c(Cl)c3)ccnc2cc1OCCn1ccnn1 [Example 170, N-[2-chloro-4-(6-methoxy-7-{[2-(1H-1,2,3-triazol-1-yl)ethoxy]-4-quinolyl}oxy)phenyl]-N′-(2,4-difluorophenyl)urea]
Human KDR
  IC50: 1.1 nM
Human glioma cells GL07
  TGIR, % (tumor growth inhibition rate): 64%

## CCNC(=O)Nc1cc(C)c(Oc2ccnc3cc(OCCN4CCOCC4)c(OC)cc23)cc1C [Example 175, N-Ethyl-N′-(4-{[6-methoxy-7-(2-morpholinoethoxy)-4-guinolyl]oxy}-2,5-dimethylphenyl)urea]
Human KDR
  IC50: 4.7 nM
Human glioma cells GL07
  inhibition in vivo at 20 mg/kg: 17%

## CCCNC(=O)Nc1cc(C)c(Oc2ccnc3cc(OCCCN4CCN(C)CC4)c(OC)cc23)cc1C [Example 176, N-[4-({6-Methoxy-7-[3-(4-methylpiperazino)-propoxy]-4-guinolyl}oxy)-2,5-dimethylphenyl]-N′-propylurea]
Human KDR
  IC50: 3.7 nM
Human glioma cells GL07
  inhibition in vivo at 20 mg/kg: 22%

Reference: patent US7169789B2 (Kirin Beer Kabushiki Kaisha, priority 1999, dated 2007)
